These compounds were tested on beta-TC6 cells (assay: Insulin HTRF assay (relative activity Ar) in beta-TC6 cells). Details: Mus musculus, Beta-TC6, 4 h, insulin HTRF, supernatant of beta-TC6 cells, incubation with test compound at 37°C for 2, 3, 4h; read-out: Ar (relative activity).
Format: cell-based, mouse
Procedure, shortened: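 beta-TC6 cells (15k/well, seeded 24 or 48 h) washed, then exposed to compound in induction buffer (0.5% DMSO final) for 2, 3 or 4 h at 37°C.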

Compared with `c1ccc(-c2cc3c(Nc4ccccn4)nccc3[nH]2)cc1` [Compound 321, 2-phenyl-N-(2-pyridyl)-1H-pyrrolo[3,2-c]pyridin-4-amine], `Cn1c(-c2ccccc2)cc2c(Nc3ccccn3)nccc21` [Compound 327, 1-methyl-2-phenyl-N-(2-pyridyl)pyrrolo[3,2-c]pyridin-4-amine] is higher in Emax: 30 to 50% for the first, 50 to 100% for the second.

First: CN(C)C(=O)c1ccc(Nc2nccc3[nH]c(-c4ccccc4)cc23)cc1 [Compound 322, N,N-dimethyl-4-[(2-phenyl-1 H-pyrrolo[3,2-c]pyridin-4-yl)amino]benzamide]
Second: CS(=O)(=O)c1ccc(Nc2nccc3[nH]c(-c4ccccc4)cc23)cc1 [Compound 324, N-(4-methylsulfonylphenyl)-2-phenyl-1H-pyrrolo[3,2-c]pyridin-4-amine]
The Emax of the first is higher: over 100% for the first, 50 to 100% for the second.

Compared with `CC(=O)Nc1cccc(Nc2nccc3[nH]c(-c4ccccc4)cc23)c1` [Compound 323, N-[3-[(2-phenyl-1 H-pyrrolo[3,2-c]pyridin-4-yl)amino]phenyl]acetamide], `Cn1c(-c2ccccc2)cc2c(Nc3cccc(O)c3)nccc21` [Compound 328, 3-[(1-methyl-2-phenyl-pyrrolo[3,2-c]pyridin-4-yl)amino]phenol] is lower in Emax: 50 to 100% for the first, 30 to 50% for the second.

`Cn1c(-c2ccccc2)cc2c(Nc3ccc(C(N)=O)cc3)nccc21` [Compound 325, 4-[(1-methyl-2-phenyl-pyrrolo[3,2-c]pyridin-4-yl)amino]benzamide] and `COc1ccc(Nc2nccc3c2cc(-c2ccccc2)n3C)cc1OC` [Compound 326, N-(3,4-dimethoxyphenyl)-1-methyl-2-phenyl-pyrrolo[3,2-c]pyridin-4-amine] fall in the same range of Emax: 30 to 50% for the first, 30 to 50% for the second.

Compared with `COc1cc(Nc2nccc3[nH]c(-c4ccccc4)nc23)cc(OC)c1OC` [Compound 329, 2-phenyl-N-(3,4,5-trimethoxyphenyl)-1H-imidazo[4,5-c]pyridin-4-amine], `COc1ccc(Nc2nccc3[nH]c(-c4ccccc4)nc23)cc1OC` [Compound 330, N-(3,4-dimethoxyphenyl)-2-phenyl-1H-imidazo[4,5-c]pyridin-4-amine] is higher in Emax: 50 to 100% for the first, over 100% for the second.

Compared with `CN(C)c1cccc(Nc2nccc3[nH]c(-c4ccccc4)nc23)c1` [Compound 331, N1,N1-dimethyl-N3-(2-phenyl-1H-imidazo[4,5-c]pyridin-4-yl)benzene-1,3-diamine], `Oc1cccc(Nc2nccc3[nH]c(-c4ccccc4)nc23)c1` [Compound 337, 3-[(2-phenyl-1H-imidazo[4,5-c]pyridin-4-yl)amino]phenol] is lower in Emax: 50 to 100% for the first, 30 to 50% for the second.

First: c1ccc(-c2nc3c(NCCc4ccccn4)nccc3[nH]2)cc1 [Compound 332, 2-phenyl-N-[2-(2-pyridyl)ethyl]-1H-imidazo[4,5-c]pyridin-4-amine]
Second: c1ccc(-c2nc3c(NCc4ccncc4)nccc3[nH]2)cc1 [Compound 335, 2-phenyl-N-(4-pyridylmethyl)-1H-imidazo[4,5-c]pyridin-4-amine]
The Emax of the first is higher: 30 to 50% for the first, 0 to 30% for the second.

First: COc1ccc(Nc2nccc3[nH]c(-c4ccccc4)nc23)cc1 [Compound 333, N-(4-methoxyphenyl)-2-phenyl-1H-imidazo[4,5-c]pyridin-4-amine]
Second: CS(=O)(=O)c1cccc(Nc2nccc3[nH]c(-c4ccccc4)nc23)c1 [Compound 336, N-(3-methylsulfonylphenyl)-2-phenyl-1H-imidazo[4,5-c]pyridin-4-amine]
The Emax of the first is higher: 50 to 100% for the first, 30 to 50% for the second.

`CN1CCN(c2nccc3[nH]c(-c4ccccc4)nc23)CC1` [Compound 334, 4-(4-methylpiperazin-1-yl)-2-phenyl-1H-imidazo[4,5-c]pyridine] and `c1ccc(-c2nc3c(N4CCOCC4)nccc3[nH]2)cc1` [Compound 338, 4-(2-phenyl-1H-imidazo[4,5-c]pyridin-4-yl)morpholine] fall in the same range of Emax: 30 to 50% for the first, 30 to 50% for the second.

Work on `c1ccc(-c2nc3c(NCC4CC4)nccc3[nH]2)cc1` [Compound 339, N-(cyclopropylmethyl)-2-phenyl-1H-imidazo[4,5-c]pyridin-4-amine] yielded an Emax of 30 to 50%.
